Measured values published in patent US20100130604A1, “USE OF ROSMARINIC ACID IN MANUFACTURE OF MEDICAMENTS FOR TREATING OR PREVENTING HEPATIC AND RENAL DISEASES” (SHANGDONG LUYE NATURAL DRUG RESEARCH AND DEVELOPMENT CO., …, priority 2006, published 2010).

What was measured:
CRF rats = assay: CRF induced by 5/6 nephrectomy in rats; format: in vivo, Sprague Dawley rats
Procedure: 130 rats were randomly divided into 13 groups, with 10 animals in each group, namely, a normal control group, a model group, methylprednisolone p.o. Group at 12 mg/kg, RA i.v. groups at 2.5 mg/kg, 5 mg/kg, 25 mg/kg, 75 mg/kg, and 150 mg/kg of RA, and RA p.o. groups at 5 mg/kg, 10 mg/kg, 50 mg/kg, 150 mg/kg, and 300 mg/kg of RA. Apart from the normal control group, all other rats were induced to CRF by cutting off 5/6 of the kidneys. 2/3 of the left kidney was removed in the first operation, and one week later the right kidney in the second operation. Dosing started one week after the second operation via p.o. or i.p. routes. Blood was collected from eyepit at week 4 and week 8 to determine creatinine and urea nitrogen levels in sera. 5 animals in each group were sacrificed at week 4 and […] were sacrificed at the end of the study. Pathological changes in renal function were observed through HE and PAS staining of histopathological sections.

[1] = test system: rats with diabetic nephropathy; assay: Diabetic nephropathy in rats (left nephrectomy + streptozocin); format: in vivo, Sprague Dawley rats; details: for creatinine: serum
Procedure: After 1 week-long acclimation period, animals were anaesthetised with 10% chloral hydrate (0.35 mL/100 g, i.p.) and nephrectomy was exercised to the left kidney. One week later, a single dose of 1% of streptozocin solution was i.v. injected to all animals at 60 mg/kg. After 72h, blood was collected from eyepit to test blood glucose level with the above-mentioned kit. The model was considered successful when blood glucose level >16.7 mmol/L. When the model is established, 130 rats were randomly divided into 13 groups, with 10 animals in each group, namely, a normal control group, a model group, benzanapril p.o. Group at 10 mg/kg, RA i.v. groups at 2.5 mg/kg, 5 mg/kg, 25 mg/kg, 75 mg/kg, and 150 mg/kg of RA, and RA p.o. groups at 5 mg/kg, 10 mg/kg, 50 mg/kg, 150 mg/kg, and 300 mg/kg of RA. The drugs were administered once every day. Blood was collected from eyepit at week 8 and week 16 to determine serum levels of creatinine and urea nitrogen. Urinary protein excretion within 24 hours was also studied. The animals were sacrificed 24 hours after the last dose and kidney removed for histopathological examination.

Compound `O=C(/C=C/c1ccc(O)c(O)c1)O[C@H](Cc1ccc(O)c(O)c1)C(=O)O` [RA, R(+)2-{[3-(3,4-dihydroxylphenyl-(oxo-2-propenyl)oxy]3,4-dihydroxylphenylpropionic acid]}] has a Serum urea nitrogen (CRF rats; 4 weeks, p.o. 5 mg/kg) of 20.21 ± 2.22 mg/dL, a Serum urea nitrogen (CRF rats; 4 weeks, p.o. 50 mg/kg) of 19.95 ± 2.20 mg/dL and a Serum urea nitrogen (CRF rats; 8 weeks, p.o. 5 mg/kg) of 25.98 ± 2.72 mg/dL. The Serum creatinine (CRF rats; 8 weeks, p.o. 50 mg/kg) was 1.92 ± 0.32 mg/dL, the Serum creatinine (CRF rats; 8 weeks, p.o. 300 mg/kg) was 1.74 ± 0.36 mg/dL and the “renal pathological changes (HE, PAS)” value (CRF rats; week 8) was “alleviated by RA treatment in a dose-dependent manner”. For the same compound, the “24 h urinary protein excretion” value ([1]; 8 weeks, i.v. 2.5 mg/kg) was 20.29 ± 2.21 mg/24 h, the Blood glucose ([1]; 8 weeks, i.v. 2.5 mg/kg) was 21.23 ± 5.66 mmol/L and the Serum urea nitrogen ([1]; 8 weeks, i.v. 2.5 mg/kg) was 18.01 ± 1.62 mg/dL. The “24 h urinary protein excretion” value ([1]; 8 weeks, i.v. 5 mg/kg) was 19.19 ± 2.15 mg/24 h, the Blood glucose ([1]; 8 weeks, i.v. 5 mg/kg) was 21.02 ± 6.14 mmol/L and the Serum urea nitrogen ([1]; 8 weeks, i.v. 5 mg/kg) was 17.91 ± 1.80 mg/dL. For the same compound, the “24 h urinary protein excretion” value ([1]; 8 weeks, i.v. 25 mg/kg) was 17.59 ± 2.12 mg/24 h, the Blood glucose ([1]; 8 weeks, i.v. 25 mg/kg) was 21.15 ± 5.74 mmol/L and the Serum urea nitrogen ([1]; 8 weeks, i.v. 25 mg/kg) was 15.42 ± 3.36 mg/dL. The “24 h urinary protein excretion” value ([1]; 8 weeks, i.v. 75 mg/kg) was 16.78 ± 2.52 mg/24 h, the Blood glucose ([1]; 8 weeks, i.v. 75 mg/kg) was 21.03 ± 4.74 mmol/L and the Serum urea nitrogen ([1]; 8 weeks, i.v. 75 mg/kg) was 14.76 ± 2.19 mg/dL. The “24 h urinary protein excretion” value ([1]; 8 weeks, i.v. 150 mg/kg) was 16.39 ± 2.25 mg/24 h, the Blood glucose ([1]; 8 weeks, i.v. 150 mg/kg) was 21.23 ± 5.54 mmol/L and the Serum urea nitrogen ([1]; 8 weeks, i.v. 150 mg/kg) was 13.87 ± 1.75 mg/dL. The “24 h urinary protein excretion” value ([1]; 8 weeks, p.o. 5 mg/kg) was 20.59 ± 2.34 mg/24 h, the Blood glucose ([1]; 8 weeks, p.o. 5 mg/kg) was 21.23 ± 6.36 mmol/L and the Serum urea nitrogen ([1]; 8 weeks, p.o. 5 mg/kg) was 19.37 ± 3.85 mg/dL. For the same compound, the “24 h urinary protein excretion” value ([1]; 8 weeks, p.o. 10 mg/kg) was 19.11 ± 2.19 mg/24 h, the Blood glucose ([1]; 8 weeks, p.o. 10 mg/kg) was 20.87 ± 6.55 mmol/L and the Serum urea nitrogen ([1]; 8 weeks, p.o. 10 mg/kg) was 17.57 ± 2.70 mg/dL. For the same compound, the “24 h urinary protein excretion” value ([1]; 8 weeks, p.o. 50 mg/kg) was 17.89 ± 2.64 mg/24 h, the Blood glucose ([1]; 8 weeks, p.o. 50 mg/kg) was 21.07 ± 5.46 mmol/L and the Serum urea nitrogen ([1]; 8 weeks, p.o. 50 mg/kg) was 15.96 ± 1.95 mg/dL. For the same compound, the “24 h urinary protein excretion” value ([1]; 8 weeks, p.o. 150 mg/kg) was 17.18 ± 2.56 mg/24 h, the Blood glucose ([1]; 8 weeks, p.o. 150 mg/kg) was 21.32 ± 6.44 mmol/L and the Serum urea nitrogen ([1]; 8 weeks, p.o. 150 mg/kg) was 14.76 ± 2.65 mg/dL. For the same compound, the “24 h urinary protein excretion” value ([1]; 8 weeks, p.o. 300 mg/kg) was 16.89 ± 2.75 mg/24 h, the Blood glucose ([1]; 8 weeks, p.o. 300 mg/kg) was 20.97 ± 5.54 mmol/L and the Serum urea nitrogen ([1]; 8 weeks, p.o. 300 mg/kg) was 14.42 ± 2.90 mg/dL. For the same compound, the “24 h urinary protein excretion” value ([1]; 16 weeks, i.v. 2.5 mg/kg) was 60.96 ± 6.85 mg/24 h, the Blood glucose ([1]; 16 weeks, i.v. 2.5 mg/kg) was 22.02 ± 5.34 mmol/L and the Serum urea nitrogen ([1]; 16 weeks, i.v. 2.5 mg/kg) was 33.91 ± 3.60 mg/dL. For the same compound, the “24 h urinary protein excretion” value ([1]; 16 weeks, i.v. 5 mg/kg) was 57.28 ± 8.46 mg/24 h, the Blood glucose ([1]; 16 weeks, i.v. 5 mg/kg) was 22.15 ± 4.24 mmol/L and the Serum urea nitrogen ([1]; 16 weeks, i.v. 5 mg/kg) was 30.42 ± 7.36 mg/dL. The “24 h urinary protein excretion” value ([1]; 16 weeks, i.v. 25 mg/kg) was 55.34 ± 7.67 mg/24 h, the Blood glucose ([1]; 16 weeks, i.v. 25 mg/kg) was 22.03 ± 4.59 mmol/L and the Serum urea nitrogen ([1]; 16 weeks, i.v. 25 mg/kg) was 26.76 ± 4.19 mg/dL. For the same compound, the “24 h urinary protein excretion” value ([1]; 16 weeks, i.v. 75 mg/kg) was 54.78 ± 7.96 mg/24 h, the Blood glucose ([1]; 16 weeks, i.v. 75 mg/kg) was 22.35 ± 7.28 mmol/L and the Serum urea nitrogen ([1]; 16 weeks, i.v. 75 mg/kg) was 23.07 ± 3.95 mg/dL. The “24 h urinary protein excretion” value ([1]; 16 weeks, i.v. 150 mg/kg) was 54.28 ± 7.46 mg/24 h, the Blood glucose ([1]; 16 weeks, i.v. 150 mg/kg) was 22.23 ± 6.24 mmol/L and the Serum urea nitrogen ([1]; 16 weeks, i.v. 150 mg/kg) was 22.57 ± 3.45 mg/dL. The “24 h urinary protein excretion” value ([1]; 16 weeks, p.o. 5 mg/kg) was 65.55 ± 8.71 mg/24 h, the Blood glucose ([1]; 16 weeks, p.o. 5 mg/kg) was 22.23 ± 5.66 mmol/L and the Serum urea nitrogen ([1]; 16 weeks, p.o. 5 mg/kg) was 39.37 ± 3.85 mg/dL. For the same compound, the “24 h urinary protein excretion” value ([1]; 16 weeks, p.o. 10 mg/kg) was 61.33 ± 6.65 mg/24 h, the Blood glucose ([1]; 16 weeks, p.o. 10 mg/kg) was 21.87 ± 5.55 mmol/L and the Serum urea nitrogen ([1]; 16 weeks, p.o. 10 mg/kg) was 38.37 ± 3.85 mg/dL. For the same compound, the “24 h urinary protein excretion” value ([1]; 16 weeks, p.o. 50 mg/kg) was 57.28 ± 8.46 mg/24 h, the Blood glucose ([1]; 16 weeks, p.o. 50 mg/kg) was 22.07 ± 4.46 mmol/L and the Serum urea nitrogen ([1]; 16 weeks, p.o. 50 mg/kg) was 34.57 ± 5.60 mg/dL. The “24 h urinary protein excretion” value ([1]; 16 weeks, p.o. 150 mg/kg) was 56.28 ± 8.76 mg/24 h, the Blood glucose ([1]; 16 weeks, p.o. 150 mg/kg) was 21.32 ± 6.34 mmol/L and the Serum urea nitrogen ([1]; 16 weeks, p.o. 150 mg/kg) was 28.96 ± 3.95 mg/dL. The “24 h urinary protein excretion” value ([1]; 16 weeks, p.o. 300 mg/kg) was 55.78 ± 9.46 mg/24 h, the Blood glucose ([1]; 16 weeks, p.o. 300 mg/kg) was 21.97 ± 5.34 mmol/L and the Serum urea nitrogen ([1]; 16 weeks, p.o. 300 mg/kg) was 27.76 ± 5.30 mg/dL. The kidney pathological examination ([1]; RA treated groups vs model group) was “fewer lesions than the model group in a dose-dependent manner”, the creatinine ([1]; 8 weeks, i.v. 2.5 mg/kg) was 0.91 ± 0.12 mg/dL and the creatinine ([1]; 8 weeks, i.v. 5 mg/kg) was 0.90 ± 0.09 mg/dL. For the same compound, the creatinine ([1]; 8 weeks, i.v. 25 mg/kg) was 0.75 ± 0.18 mg/dL, the creatinine ([1]; 8 weeks, i.v. 75 mg/kg) was 0.72 ± 0.15 mg/dL and the creatinine ([1]; 8 weeks, i.v. 150 mg/kg) was 0.69 ± 0.11 mg/dL. For the same compound, the creatinine ([1]; 8 weeks, p.o. 5 mg/kg) was 0.96 ± 0.09 mg/dL, the creatinine ([1]; 8 weeks, p.o. 10 mg/kg) was 0.88 ± 0.15 mg/dL and the creatinine ([1]; 8 weeks, p.o. 50 mg/kg) was 0.77 ± 0.13 mg/dL. The creatinine ([1]; 8 weeks, p.o. 150 mg/kg) was 0.75 ± 0.12 mg/dL, the creatinine ([1]; 8 weeks, p.o. 300 mg/kg) was 1.40 ± 0.28 mg/dL and the creatinine ([1]; 16 weeks, i.v. 2.5 mg/kg) was 1.60 ± 0.18 mg/dL. For the same compound, the creatinine ([1]; 16 weeks, i.v. 5 mg/kg) was 1.52 ± 0.37 mg/dL, the creatinine ([1]; 16 weeks, i.v. 25 mg/kg) was 1.32 ± 0.28 mg/dL and the creatinine ([1]; 16 weeks, i.v. 75 mg/kg) was 1.26 ± 0.28 mg/dL. It also gave a creatinine ([1]; 16 weeks, i.v. 150 mg/kg) of 1.20 ± 0.22 mg/dL, a creatinine ([1]; 16 weeks, p.o. 5 mg/kg) of 1.97 ± 0.19 mg/dL and a creatinine ([1]; 16 weeks, p.o. 10 mg/kg) of 1.92 ± 0.19 mg/dL. For the same compound, the creatinine ([1]; 16 weeks, p.o. 50 mg/kg) was 1.77 ± 0.28 mg/dL, the creatinine ([1]; 16 weeks, p.o. 150 mg/kg) was 1.53 ± 0.28 mg/dL and the creatinine ([1]; 16 weeks, p.o. 300 mg/kg) was 1.50 ± 0.26 mg/dL. For the same compound, the “serum creatinine, urea nitrogen, 24-hour urinary protein excretion” value ([1]; week 8 and week 16, i.v. 2.5, 5, 25, 75, 150 mg/kg, p.o. 5, 10, 50, 150, 300 mg/kg) was “can all significantly reduce serum creatinine and urea nitrogen levels as well as 24-hour urinary protein excretion”.
